Assay results: patent US9708316B2 (BRISTOL-MYERS SQUIBB COMPANY, priority 2014, dated 2017)

Columns and labels:
HIS-TGFβR1 T204D = target: T1, HIS-TGFβR1 T204D (Homo sapiens, UniProt P36897, T204D); assay: HTRF probe-displacement assay, HIS-TGFβR1 T204D; type: binding; settings: read-out: TGFβR1 (μM) IC50
T1 sequence (P36897 34-503 T204D): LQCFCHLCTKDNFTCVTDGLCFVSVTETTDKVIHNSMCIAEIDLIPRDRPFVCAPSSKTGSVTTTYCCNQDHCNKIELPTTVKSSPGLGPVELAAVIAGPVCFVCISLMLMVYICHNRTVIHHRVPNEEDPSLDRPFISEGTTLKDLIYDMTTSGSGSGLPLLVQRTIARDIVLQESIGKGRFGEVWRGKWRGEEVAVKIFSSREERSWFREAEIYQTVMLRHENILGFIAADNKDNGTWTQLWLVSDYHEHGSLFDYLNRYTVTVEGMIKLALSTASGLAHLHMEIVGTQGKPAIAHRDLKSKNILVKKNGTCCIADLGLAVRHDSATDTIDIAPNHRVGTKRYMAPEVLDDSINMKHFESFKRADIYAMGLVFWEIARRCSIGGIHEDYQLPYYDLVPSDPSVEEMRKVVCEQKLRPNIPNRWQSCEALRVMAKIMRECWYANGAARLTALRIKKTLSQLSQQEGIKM

HIS-TGFβR2 WT = HIS-TGFβR2 WT (Homo sapiens, UniProt P37173); assay: HTRF probe-displacement assay, HIS-TGFβR2 WT; type: binding
Chain of HIS-TGFβR2 WT (P37173 23-567): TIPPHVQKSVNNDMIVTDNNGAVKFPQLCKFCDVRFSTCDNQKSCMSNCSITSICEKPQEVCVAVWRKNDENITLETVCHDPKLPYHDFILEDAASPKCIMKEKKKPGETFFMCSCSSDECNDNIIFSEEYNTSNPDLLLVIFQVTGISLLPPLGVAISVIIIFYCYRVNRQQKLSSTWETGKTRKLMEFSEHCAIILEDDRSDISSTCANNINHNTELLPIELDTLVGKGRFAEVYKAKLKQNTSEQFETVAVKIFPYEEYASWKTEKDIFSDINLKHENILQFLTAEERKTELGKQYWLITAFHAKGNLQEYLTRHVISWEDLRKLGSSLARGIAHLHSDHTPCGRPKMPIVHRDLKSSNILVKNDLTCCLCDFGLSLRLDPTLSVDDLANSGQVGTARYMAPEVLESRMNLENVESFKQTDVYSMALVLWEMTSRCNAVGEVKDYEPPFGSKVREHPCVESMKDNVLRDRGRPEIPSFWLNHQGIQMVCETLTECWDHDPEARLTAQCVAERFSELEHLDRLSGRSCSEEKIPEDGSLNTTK

Row | Structure (SMILES) | IC50 (HIS-TGFβR1 T204D) | IC50 (HIS-TGFβR2 WT)
1 | CC(=O)Nc1cc(-c2[nH]c3cccnc3c2-c2ccc(F)c(C(F)F)n2)ccn1 [Example 193, N-(4-(3-(6-(Difluoromethyl)-5-fluoropyridin-2-yl)-1H-pyrrolo[3,2-b]pyridin-2-yl)pyridin-2-yl)acetamide] | 0.0006 µM | > 15 µM
2 | COc1cnc2c(-c3cccc(C)n3)c(-c3ccnc(NC(=O)CN(C)C)c3)[nH]c2c1 [Example 116, 2-(Dimethylamino)-N-{4-[6-methoxy-3-(6-methylpyridin-2-yl)-1H-pyrrolo[3,2-b]pyridin-2-yl]pyridin-2-yl}acetamide] | 0.005 µM | 7.35 µM
3 | COc1ccc(-c2c(-c3ccnc(NC(=O)CN4CCN(C)CC4)c3)[nH]c3cc(Cl)cnc23)nc1C [Example 238, N-(4-(6-Chloro-3-(5-methoxy-6-methylpyridin-2-yl)-1H-pyrrolo[3,2-b]pyridin-2-yl)pyridin-2-yl)-2-(4-methylpiperazin-1-yl)acetamide] | 0.0882 µM | > 15 µM
4 | COc1ccnc2c(-c3cccc(C(F)F)n3)c(-c3ccnc(NC(C)=O)c3)[nH]c12 [Example 267, N-(4-(3-(6-(Difluoromethyl)pyridin-2-yl)-7-methoxy-1H-pyrrolo[3,2-b]pyridin-2-yl)pyridin-2-yl)acetamide] | 0.002 µM | > 15 µM
5 | CC(=O)Nc1cc(-c2[nH]c3cc(F)cnc3c2-c2ncc(C)s2)ccn1 [Example 183, N-(4-(6-Fluoro-3-(5-methylthiazol-2-yl)-1H-pyrrolo[3,2-b]pyridin-2-yl)pyridin-2-yl)acetamide] | 0.003 µM | 0.407 µM
6 | COc1cnc2c(-c3csc(C)n3)c(-c3ccnc(NC(C)=O)c3)[nH]c2c1 [Example 210, N-(4-(6-Methoxy-3-(2-methylthiazol-4-yl)-1H-pyrrolo[3,2-b]pyridin-2-yl)pyridin-2-yl)acetamide] | 0.0025 µM | 0.815 µM
7 | CC(=O)Nc1cc(-c2[nH]c3cc(F)cnc3c2-c2cccc(Cl)n2)ccn1 [Example 38, N-{4-[3-(6-Chloropyridin-2-yl)-6-fluoro-1H-pyrrolo[3,2-b]pyridin-2-yl]pyridin-2-yl}acetamide] | 0.002 µM | 0.11 µM
8 | CC(=O)Nc1cc(-c2[nH]c3nccnc3c2-c2cccc(Cl)n2)ccn1 [Example 55, N-{4-[7-(6-Chloropyridin-2-yl)-5H-pyrrolo[2,3-b]pyrazin-6-yl]pyridin-2-yl}acetamide] | 0.003 µM | 0.069 µM
9 | CC(=O)Nc1cc(-c2[nH]c3c(C(=O)NC(CO)CO)cc(Cl)nc3c2-c2cccnc2)ccn1 [Example 60, 5-Chloro-N-(1,3-dihydroxypropan-2-yl)-2-(2-acetamidopyridin-4-yl)-3-(pyridin-3-yl)-1H-pyrrolo[3,2-b]pyridine-7-carboxamide] | 0.32 µM | 6.65 µM

Continued, values first:

Row | IC50 (HIS-TGFβR1 T204D) | IC50 (HIS-TGFβR2 WT) | Structure (SMILES)
10 | 0.008 µM | 1.55 µM | O=C(CO)Nc1cc(-c2[nH]c3cc(Cl)cnc3c2-c2ccc(F)cn2)ccn1 [Example 72, N-{4-[6-Chloro-3-(5-fluoropyridin-2-yl)-1H-pyrrolo[3,2-b]pyridin-2-yl]pyridin-2-yl}-2-hydroxyacetamide]
11 | 0.004 µM | > 15 µM | COc1ccc(-c2c(-c3ccnc(NC(C)=O)c3)[nH]c3cc(Cl)cnc23)nc1 [Example 47, N-{4-[6-Chloro-3-(5-methoxypyridin-2-yl)-1H-pyrrolo[3,2-b]pyridin-2-yl]pyridin-2-yl}acetamide]
12 | 0.008 µM | > 15 µM | CC(=O)Nc1cc(-c2[nH]c3cc(Cl)cnc3c2-c2ccc(Cl)cn2)ccn1 [Example 46, N-{4-[6-Chloro-3-(5-chloropyridin-2-yl)-1H-pyrrolo[3,2-b]pyridin-2-yl]pyridin-2-yl}acetamide]
13 | 0.004 µM | > 15 µM | CCOc1ccc(-c2c(-c3ccnc(NC(C)=O)c3)[nH]c3cc(Cl)cnc23)nc1 [Example 253, N-(4-(6-Chloro-3-(5-ethoxypyridin-2-yl)-1H-pyrrolo[3,2-b]pyridin-2-yl)pyridin-2-yl)acetamide]
